Laboratory results as given in US11292787B2, “Five-membered-fused-six-membered aza-aromatic ring compound, preparation method thereof, pharmaceutical composition and application thereof” (XIAMEN UNIVERSITY, priority 2017, dated 2022).
“Also recorded” adds a separate entry of the source.

Assays:
K-Ras protein = biological target: T1, K-Ras protein (Homo sapiens, UniProt P01116, G12V); assay: K-Ras protein degradation rate by Western blot in SW-620 cells; format: cell-based; conditions: for percent K-Ras protein degradation (single point) at 10 µM: SW-620 cells, 24 h, Western blot, relative to DMSO control, read-out: Degradation rate of compounds at 10 μM on Ras protein (%)
T1 construct: in SW620 cells, compound I-a-1 can effectively enhance the degradation of endogenous K-RAS-G12V proteins; endogenous in cells; host or cells: SW-620
Method: (§1) Inhibitory activity of compounds on K-RAS was evaluated by the degradation rate of protein level of administration group relative to control group (Cell Rep 2014, 7, 871-882).
(§2) The specific method was as follows:
1. Cell plating: SW-620 cells in logarithmic growth phase were inoculated into a 24-well plate at 2×10^4/well, and cultured in a 37° C., 5% CO2 incubator.
2. Administering drug to cells: after 24 h of culture, various drug stocks […]; the original solution in the 24-well plate was discarded, to which was added the obtained drug solution, with the DMSO group as the blank control; after the drug solution was added, the 24-well plate was transferred to the 37° C. CO2 incubator to continue the culture.
3. Detection of K-Ras protein level: after 24 h of administration and culture, the liquid in the well was discarded, the cells were routinely collected, and rinsed twice with 1×PBS, a cell lysate was added to extract the total cellular protein, and the protein concentration was determined by BCA method. 30 μg of the protein sample was taken for SDS-polyacrylamide gel electrophoretic transmembrane, the membrane was blocked sequentially, incubated with K-Ras antibody (1:1000) and internal reference antibody β-actin (1:2000) respectively overnight at 4° C., rinsed with TBST for 5 min×3 times, then incubated with the addition of the corresponding horseradish peroxidase-labeled secondary antibody (1:5000) for 1-2 h, and rinsed with TBST for 5 min×3 times. Finally, chemiluminescence image was acquired using Image Lab software.
4. Calculation of single-point K-Ras protein degradation rate: quantitative and calibration analysis of K-Ras and β-actin were conducted using Image-Lab software, and then the intracellular K-Ras degradation rate was calculated according to the following formula: single-point K-Ras protein degradation rate (%)=(control group−administration group)/control group×100%. The drug with degradation rate ≥20% was selected for soft agar experiment.

K-RAS-G12V = biological target: T2, K-RAS-G12V (Homo sapiens, UniProt P01116, G12V); assay: Degradation of overexpressed K-RAS-G12V protein in 293T cells (FIG. 1a); format: cell-based; conditions: 293T cells overexpressing K-RAS-G12V
T2 construct: expressed in transfected cells; host or cells: 293T
Method: as §1

MCF-7 cells = assay: Soft agar colony formation, MCF-7 cells (K-RAS-WT); format: cell-based; conditions: K-RAS-WT genetic background, FIG. 2a
Method: as §2
(§3) 1) 1% agar was formulated, and autoclaved. 1% agar was heated and melted in a boiling water bath before use, and then cooled in a 40° C. water bath (by holding in the bath for at least 30 minutes, the agar was cooled to a temperature of 40° C.); at the same time, 2×DMEM/FBS was placed in a warm bath. 2) A bottom agar with 0.5% agar was prepared by mixing 1% agar with 2×DMEM/FBS in a sterile tube at a volume ratio of 1:1. The mixed solution was added to a 6-well plate rapidly at 1.5 ml per well, shaked slightly, and placed at room temperature for solidification (after solidification, the bottom agar could be stored at 4° C. for 1 week. Before use, it was placed at room temperature for at least 30 minutes to return to room temperature).
(§4) 1) A mixed solution with a final concentration of 0.3% agar+1×DMEM/FBS was formulated in a sterile tube using 1% agar, 2×DMEM/FBS and sterile water at a temperature of 40° C. The prepared mixed solution was placed in a 40° C. water bath for use.
(§5) 2) The cells were trypsinized and counted. The cell density was adjusted according to the needs of the experiment. […]

HT-29 cells = assay: Soft agar colony formation, HT-29 cells (RAF mutation); format: cell-based; conditions: RAF mutation genetic background, FIG. 2c
Method: as §2, §3, §4, §5

SW620 xenograft = assay: Nude mouse SW620 xenograft tumor experiment; format: in vivo, nude mice; conditions: tail vein, 40 mg/kg, 80 mg/kg per day, 10 days
Method: as §2
1. 4-5 weeks old nude mice were subcutaneously injected with a SW620 cell suspension with a cell number controlled at about 5×10^6.
2. The tumor-bearing condition was observed after two to three days, and the mice were administered when the tumor volume was about 150 mm^3.
4. The mice were injected intravenously regularly with drug or control solvent every day, and the daily tumor volume was recorded.
5. The mice were continuously administered for 10 days, and the changes in tumor volume of the drug-administered group and the control group were observed.
6. 10 days later, eyeball blood was taken from all mice, and blood samples were kept for subsequent testing. After the mice were killed, the subcutaneously growing tumors were completely taken out, the tumor weights were recorded, and the tumors were stored in liquid nitrogen for subsequent testing.

SW620 cells = assay: Soft agar colony formation, SW620 cells (K-RAS-G12V); format: cell-based; conditions: K-RAS-G12V genetic background, FIG. 2b
Method: as §2, §3, §4, §5

percent K-Ras protein degradation (single point) at 10 µM (K-Ras protein)	SMILES	degradation of endogenous K-RAS-G12V protein (K-Ras protein; SW620 cells, FIG. 1b)	degradation of exogenous overexpressed RAS (K-RAS-G12V) protein (K-RAS-G12V)	colony formation on soft agar (MCF-7 cells)	colony formation on soft agar (HT-29 cells)	tumor growth (tumor volume) (SW620 xenograft; FIG. 3a)	final tumor weight (SW620 xenograft; FIG. 3b)	colony formation on soft agar (SW620 cells)
52%	O=C(NCc1c(F)cccc1Cl)c1csc(-c2n[nH]c3ccccc23)c1 [I-a-1]	can effectively enhance the degradation of endogenous K-RAS-G12V proteins and has good concentration dependence	can effectively enhance the degradation of exogenous overexpressed RAS proteins and has good concentration dependence	can effectively inhibit colony formation of the cells	does not inhibit colony formation of the cells	could effectively inhibit the growth of cancer cells with RAS positive genetic background in nude mice; also recorded: can effectively inhibit the increase of tumor volume and has good dose dependence	obviously smaller than that of the control group	
21%	O=C(NCc1c(F)cccc1Cl)c1csc(-c2n[nH]c3ncccc23)c1 [III-a-1]							can effectively inhibit colony formation of the cells
